From the NIST ThermoML archive (doi:10.1021/je900812v)

How the values were obtained:
[1] = Liquid; for mass density: 298.15 K, 101.33 kPa, Pycnometric method
[2] = refractive index (Na D-line) (dimensionless); settings: 298.15 K; 101.33 kPa; Liquid; Standard Abbe refractometry
[3] = Boiling temperature at pressure P; settings: 101.3 kPa; Liquid; Ebulliometric method (Recirculating still)

CC(C)CCO [3-methylbutan-1-ol]
Settings | mass density [kg/m3]
[1] | 807.6

[1]
Settings | vapor or sublimation pressure [kPa]
336.35 K | 5.27
346.9 K | 9.25
354.2 K | 12.96
354.3 K | 13.24
356.85 K | 14.83
359.75 K | 17.09
360.65 K | 17.61
363.55 K | 20.13
364.05 K | 20.81
365.45 K | 21.98
368.3 K | 25.18
369.5 K | 26.24
371.5 K | 28.64
380.65 K | 41.65
381.65 K | 43.64
389.6 K | 59.58
391.35 K | 64.3
392.65 K | 66.58
395.55 K | 74.19
396.9 K | 77.47
398.25 K | 81.46
403.05 K | 96.21
403.75 K | 99.99
404.55 K | 101.33
405.15 K | 103.46
408.05 K | 114.26
410.95 K | 125.72
413.05 K | 133.86

CC(=O)OCCC(C)C [3-methylbutyl ethanoate]
Settings | mass density [kg/m3] | refractive index
[1] | 866.4 | –
[2] | – | 1.39893

[1]
Settings | vapor or sublimation pressure [kPa]
368.15 K | 22.4
369.35 K | 23.4
370.65 K | 24.6
371.85 K | 25.7
372.45 K | 26.3
380.65 K | 35.3
381.75 K | 36.7
387 K | 43.9
387.9 K | 45.2
390.95 K | 50
392.75 K | 52.9
394.25 K | 55.5
395.65 K | 58
398.65 K | 63.7
401.85 K | 70.1
403.35 K | 73.3
407.15 K | 81.9
409.55 K | 87.8
410.95 K | 91.3
412.85 K | 96.3
414.15 K | 99.8
414.85 K | 101.7
415.35 K | 103.1
416.45 K | 106.2

CCCCCOC(C)=O [pentyl ethanoate]
Settings | Boiling temperature at pressure P [°C] | mass density [kg/m3] | refractive index
[1] | – | 872.3 | –
[2] | – | – | 1.4005
[3] | 148.40 | – | –

Settings | vapor or sublimation pressure [kPa]
[1], 421.55 K, Ebulliometric method (Recirculating still) | 101.3

CCCCCO [pentan-1-ol]
Settings | Boiling temperature at pressure P [°C] | mass density [kg/m3] | refractive index
[1] | – | 811.2 | –
[2] | – | – | 1.4077
[3] | 137.80 | – | –

Settings | vapor or sublimation pressure [kPa]
[1], 410.95 K, Ebulliometric method (Recirculating still) | 101.3
